# In patent US20020052295A1, “Diacyl derivatives of propylene diamine having herbicidal activity” (priority 1999, published 2002):
# Columns and labels:
# ABUTH [1] = experiment: Pre-emergence herbicidal activity on ABUTH (velvetleaf); type: in vivo, Abutilon theophrasti; conditions: lowest tested rate giving 80% or greater inhibition, approx. 14 days after planting and treating, greenhouse
# Procedure, shortened: (§1)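 Values are GR80 (rate giving 80% inhibition), with rates up to typically 1000 g/ha. Inhibition is visually recorded against untreated pots roughly two weeks after sowing and surface treatment in a 30/21 °C day/night greenhouse.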
# SOLNI [2] = experiment: Pre-emergence herbicidal activity on SOLNI (black nightshade); type: in vivo, Solanum nigrum; conditions: lowest tested rate giving 80% or greater inhibition, approx. 14 days after planting and treating, greenhouse
# Procedure, shortened: as §1
# AMARE [3] = experiment: Pre-emergence herbicidal activity on AMARE (redroot pigweed); type: in vivo, Amaranthus retroflexus; conditions: lowest tested rate giving 80% or greater inhibition, approx. 14 days after planting and treating, greenhouse
# Procedure, shortened: as §1
# DATST [4] = experiment: Pre-emergence herbicidal activity on DATST (jimsonweed); type: in vivo, Datura stramonium; conditions: lowest tested rate giving 80% or greater inhibition, approx. 14 days after planting and treating, greenhouse
# Procedure, shortened: as §1
# CHEAL [5] = experiment: Pre-emergence herbicidal activity on CHEAL (common lambsquarters); type: in vivo, Chenopodium album; conditions: lowest tested rate giving 80% or greater inhibition, approx. 14 days after planting and treating, greenhouse
# Procedure, shortened: as §1
# CONAR [6] = experiment: Pre-emergence herbicidal activity on CONAR (field bindweed); type: in vivo, Convolvulus arvensis; conditions: lowest tested rate giving 80% or greater inhibition, approx. 14 days after planting and treating, greenhouse
# Procedure, shortened: as §1
# POROL [7] = experiment: Pre-emergence herbicidal activity on POROL (common purslane); type: in vivo, Portulaca oleracea; conditions: lowest tested rate giving 80% or greater inhibition, approx. 14 days after planting and treating, greenhouse
# Procedure, shortened: as §1
# CIRAR = experiment: Pre-emergence herbicidal activity on CIRAR (canada thistle, seedling); type: in vivo, Cirsium arvense; conditions: lowest tested rate giving 80% or greater inhibition, approx. 14 days after planting and treating, greenhouse
# Procedure, shortened: as §1
# ECHCG [8] = experiment: Pre-emergence herbicidal activity on ECHCG (barnyardgrass); type: in vivo, Echinochloa crus-galli; conditions: lowest tested rate giving 80% or greater inhibition, approx. 14 days after planting and treating, greenhouse
# Procedure, shortened: as §1
# PANMI [9] = experiment: Pre-emergence herbicidal activity on PANMI (wild proso millet); type: in vivo, Panicum miliaceum; conditions: lowest tested rate giving 80% or greater inhibition, approx. 14 days after planting and treating, greenhouse
# Procedure, shortened: as §1
# SORHA [10] = experiment: Pre-emergence herbicidal activity on SORHA (johnsongrass, seedling); type: in vivo, Sorghum halepense; conditions: lowest tested rate giving 80% or greater inhibition, approx. 14 days after planting and treating, greenhouse
# Procedure, shortened: as §1
# SETFA [11] = experiment: Pre-emergence herbicidal activity on SETFA (giant foxtail); type: in vivo, Setaria faberi; conditions: lowest tested rate giving 80% or greater inhibition, approx. 14 days after planting and treating, greenhouse
# Procedure, shortened: as §1
# PANDI [12] = experiment: Pre-emergence herbicidal activity on PANDI (fall panicum); type: in vivo, Panicum dichotomiflorum; conditions: lowest tested rate giving 80% or greater inhibition, approx. 14 days after planting and treating, greenhouse
# Procedure, shortened: as §1
# SORVU [13] = experiment: Pre-emergence herbicidal activity on SORVU (shattercane); type: in vivo, Sorghum vulgare; conditions: lowest tested rate giving 80% or greater inhibition, approx. 14 days after planting and treating, greenhouse
# Procedure, shortened: as §1
# BRAPP [14] = experiment: Pre-emergence herbicidal activity on BRAPP (broadleaf signalgrass); type: in vivo, Brachiaria platyphylla; conditions: lowest tested rate giving 80% or greater inhibition, approx. 14 days after planting and treating, greenhouse
# Procedure, shortened: as §1
# DIGSA [15] = experiment: Pre-emergence herbicidal activity on DIGSA (large crabgrass); type: in vivo, Digitaria sanguinalis; conditions: lowest tested rate giving 80% or greater inhibition, approx. 14 days after planting and treating, greenhouse
# Procedure, shortened: as §1
# ABUTH [16] = experiment: Post-emergence herbicidal activity on ABUTH (velvetleaf); type: in vivo, Abutilon theophrasti; conditions: post-emergence spray; lowest tested rate with 80% or greater inhibition; about 14 days after treatment
# From the text: (§2) All such uses, and the biological activity enabling such uses, are embraced by the term “herbicidal” herein. Tables 15 and 16 summarize results of tests conducted as described below to determine the pre-emergence herbicidal activity, in the form of a GR80 value, of illustrative compounds of this invention. […] Where herbicidal activity was evident but 80% inhibition was not achieved at the highest rate tested (typically 1000 g/ha), an asterisk (*) is shown in the following tables. Herbicidal activity evident in the form of symptoms of phytotoxicity, in the absence of at least 80% inhibition at any rate, is indicated in the tables by “phyto”. A blank cell in the following tables indicates no herbicidal or phytotoxic response at any rate tested.
# (§3) In another set of tests, the post-emergence activity of compounds of this invention was evaluated on the cool season species listed above. The following procedure was used.
# (§4) A pre-prepared topsoil mixture (described above) was placed in a pot and compacted to a depth of 1.0 to 1.25 cm from the top of the pot. Seeds of each of several monocotyledonous and dicotyledonous annual plant species were placed on top of the soil The seeds were covered with a mixture of 50% topsoil and 50% Rediearth™ in sufficient quantity to level-fill the pots. The pots were then placed on a greenhouse bench and subirrigated as needed until plants growing from the seeds had emerged and reached a suitable growth stage for post-emergence treatment, typically 9 to 14 days after planting.
# (§5) A known amount of each test compound dissolved or suspended in an appropriate organic solvent was diluted with a 50:50 mix of acetone and water and applied to the plants by spraying with a standard spray nozzle in a spray volume of 3,100 l/ha at a spray pressure of […] (30 psig). Control plants were not sprayed.
# (§6) After treatment the plants were placed in a greenhouse with a 30/21° C. day/night temperature regime and were subsequently watered as needed for growth. Approximately 14 days after treatment, the plants were observed and herbicidal efficacy recorded as percent inhibition by comparison with control plants.
# SOLNI [17] = experiment: Post-emergence herbicidal activity on SOLNI (black nightshade); type: in vivo, Solanum nigrum; conditions: post-emergence spray; lowest tested rate with 80% or greater inhibition; about 14 days after treatment
# From the text: as §2, §3, §4, §5, §6
# AMARE [18] = experiment: Post-emergence herbicidal activity on AMARE (redroot pigweed); type: in vivo, Amaranthus retroflexus; conditions: post-emergence spray; lowest tested rate with 80% or greater inhibition; about 14 days after treatment
# From the text: as §2, §3, §4, §5, §6
# DATST [19] = experiment: Post-emergence herbicidal activity on DATST (jimsonweed); type: in vivo, Datura stramonium; conditions: post-emergence spray; lowest tested rate with 80% or greater inhibition; about 14 days after treatment
# From the text: as §2, §3, §4, §5, §6
# CHEAL [20] = experiment: Post-emergence herbicidal activity on CHEAL (common lambsquarters); type: in vivo, Chenopodium album; conditions: post-emergence spray; lowest tested rate with 80% or greater inhibition; about 14 days after treatment
# From the text: as §2, §3, §4, §5, §6
# CONAR [21] = experiment: Post-emergence herbicidal activity on CONAR (field bindweed); type: in vivo, Convolvulus arvensis; conditions: post-emergence spray; lowest tested rate with 80% or greater inhibition; about 14 days after treatment
# From the text: as §2, §3, §4, §5, §6
# POROL [22] = experiment: Post-emergence herbicidal activity on POROL (common purslane; table head prints PORAL); type: in vivo, Portulaca oleracea; conditions: post-emergence spray; lowest tested rate with 80% or greater inhibition; about 14 days after treatment
# From the text: as §2, §3, §4, §5, §6
# ECHCG [23] = experiment: Post-emergence herbicidal activity on ECHCG (barnyardgrass); type: in vivo, Echinochloa crus-galli; conditions: post-emergence spray; lowest tested rate with 80% or greater inhibition; about 14 days after treatment
# From the text: as §2, §3, §4, §5, §6
# PANMI [24] = experiment: Post-emergence herbicidal activity on PANMI (wild proso millet); type: in vivo, Panicum miliaceum; conditions: post-emergence spray; lowest tested rate with 80% or greater inhibition; about 14 days after treatment
# SORHA [25] = experiment: Post-emergence herbicidal activity on SORHA (johnsongrass, seedling); type: in vivo, Sorghum halepense; conditions: post-emergence spray; lowest tested rate with 80% or greater inhibition; about 14 days after treatment
# From the text: as §2, §3, §4, §5, §6
# SETFA [26] = experiment: Post-emergence herbicidal activity on SETFA (giant foxtail); type: in vivo, Setaria faberi; conditions: post-emergence spray; lowest tested rate with 80% or greater inhibition; about 14 days after treatment
# From the text: as §2, §3, §4, §5, §6
# PANDI [27] = experiment: Post-emergence herbicidal activity on PANDI (fall panicum); type: in vivo, Panicum dichotomiflorum; conditions: post-emergence spray; lowest tested rate with 80% or greater inhibition; about 14 days after treatment
# From the text: as §2, §3, §4, §5, §6
# SORVU [28] = experiment: Post-emergence herbicidal activity on SORVU (shattercane); type: in vivo, Sorghum vulgare; conditions: post-emergence spray; lowest tested rate with 80% or greater inhibition; about 14 days after treatment
# From the text: as §2, §3, §4, §5, §6
# BRAPP [29] = experiment: Post-emergence herbicidal activity on BRAPP (broadleaf signalgrass); type: in vivo, Brachiaria platyphylla; conditions: post-emergence spray; lowest tested rate with 80% or greater inhibition; about 14 days after treatment
# From the text: as §2, §3, §4, §5, §6
# DIGSA [30] = experiment: Post-emergence herbicidal activity on DIGSA (large crabgrass); type: in vivo, Digitaria sanguinalis; conditions: post-emergence spray; lowest tested rate with 80% or greater inhibition; about 14 days after treatment
structure (smiles),measurement,setting,value
"CCSc1ncccc1C(=O)NC(C)CNC(=O)c1cccc(C(F)(F)F)c1 (stereo not shown) [Example 243, 2-ethylthio-N-[1-methyl-2-(3-trifluoromethyl)phenylcarbonylamino]ethyl-3-pyridinecarboxamide]",Pre-emergence activity (GR80) on ABUTH,ABUTH [1],500 g/ha
same,Pre-emergence activity (GR80) on SOLNI,SOLNI [2],250 g/ha
same,Pre-emergence activity (GR80) on AMARE,AMARE [3],750 g/ha
same,Pre-emergence activity (GR80) on DATST,DATST [4],250 g/ha
same,Pre-emergence activity (GR80) on CHEAL,CHEAL [5],250 g/ha
same,Pre-emergence activity (GR80) on CONAR,CONAR [6],250 g/ha
same,Pre-emergence activity (GR80) on PORAL,POROL [7],250 g/ha
same,Pre-emergence activity (GR80) on CIRAR,CIRAR,250 g/ha
same,Pre-emergence activity (GR80) on ECHCG,ECHCG [8],1000 g/ha
same,Pre-emergence activity (GR80) on PANMI,PANMI [9],750 g/ha
same,Pre-emergence activity (GR80) on SORHA,SORHA [10],"* (Where herbicidal activity was evident but 80% inhibition was not achieved at the highest rate tested (typically 1000 g/ha), an asterisk (*) is shown)"
same,Pre-emergence activity (GR80) on SETFA,SETFA [11],500 g/ha
same,Pre-emergence activity (GR80) on PANDI,PANDI [12],500 g/ha
same,Pre-emergence activity (GR80) on SORVU,SORVU [13],phyto
same,Pre-emergence activity (GR80) on BRAPP,BRAPP [14],500 g/ha
same,Pre-emergence activity (GR80) on DIGSA,DIGSA [15],500 g/ha
same,Post-emergence activity (GR80) ABUTH,ABUTH [16],phyto
same,Post-emergence activity (GR80) SOLNI,SOLNI [17],phyto
same,Post-emergence activity (GR80) AMARE,AMARE [18],phyto
same,Post-emergence activity (GR80) DATST,DATST [19],750 g/ha
same,Post-emergence activity (GR80) CHEAL,CHEAL [20],phyto
same,Post-emergence activity (GR80) CONAR,CONAR [21],"* (Where herbicidal activity was evident but 80% inhibition was not achieved at the highest rate tested (typically 1000 g/ha), an asterisk (*) is shown)"
same,Post-emergence activity (GR80) PORAL,POROL [22],"* (Where herbicidal activity was evident but 80% inhibition was not achieved at the highest rate tested (typically 1000 g/ha), an asterisk (*) is shown)"
same,Post-emergence activity (GR80) ECHCG,ECHCG [23],[empty]
same,Post-emergence activity (GR80) PANMI,PANMI [24],[empty]
same,Post-emergence activity (GR80) SORHA,SORHA [25],[empty]
same,Post-emergence activity (GR80) SETFA,SETFA [26],[empty]
same,Post-emergence activity (GR80) PANDI,PANDI [27],[empty]
same,Post-emergence activity (GR80) SORVU,SORVU [28],[empty]
same,Post-emergence activity (GR80) BRAPP,BRAPP [29],[empty]
same,Post-emergence activity (GR80) DIGSA,DIGSA [30],[empty]
